# Assay results as given in US20110224247A1, “AZAISOQUINOLINONE DERIVATIVES AS NK3 ANTAGONISTS” (H. LUNDBECK A/S, priority 2010, published 2011).
# Key:
# human NK3 receptor = target: T1, human NK3 receptor (Homo sapiens, UniProt P29371); experiment: NK3 receptor binding assay; settings: filter-based competition binding vs ~0.05 nM 3H-AE93103, membranes of BHK cells expressing human NK3; Ki by Cheng Prusoff; read-out: Affinity (Ki/nM)
# T1 construct: expressed in transfected cells; membranes prepared
# T1 sequence (P29371 1-465): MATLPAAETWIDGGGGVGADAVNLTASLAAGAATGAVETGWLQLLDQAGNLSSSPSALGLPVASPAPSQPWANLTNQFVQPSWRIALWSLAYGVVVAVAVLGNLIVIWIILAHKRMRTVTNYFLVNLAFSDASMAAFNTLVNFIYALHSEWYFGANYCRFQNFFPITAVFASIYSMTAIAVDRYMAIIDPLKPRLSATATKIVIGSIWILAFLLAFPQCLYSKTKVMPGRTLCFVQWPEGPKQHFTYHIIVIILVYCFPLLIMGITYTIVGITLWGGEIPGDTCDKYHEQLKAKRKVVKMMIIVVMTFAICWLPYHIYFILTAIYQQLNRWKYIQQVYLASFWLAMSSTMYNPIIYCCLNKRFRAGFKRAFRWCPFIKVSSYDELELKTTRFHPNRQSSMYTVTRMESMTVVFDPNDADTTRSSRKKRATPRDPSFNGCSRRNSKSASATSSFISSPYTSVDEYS
# Method: Membranepreparation: BHK cells stably expressing the human NK3 receptor were seeded in harvesting plates in Dulbeccos MEM containing GlutaMax (862 mg/l), 1 mM sodium pyruvate, 10% fetal calf serum, 1% Pen/Strep, 1 mg/ml G418 and were grown at 34° C. in a humidified atmosphere containing 10% CO2. To increase receptor expression, 10 μM trichotatin A was added to the media 24 hours before harvest of the cells at a confluency of app 90%. Prior to the harvesting, the cells were washed twice with PBS without Mg^2+ and Ca^2+ and subsequently scrapped of in 10 ml PBS pr harvesting plate. The cells suspension were centrifuged at 1500×G in three minutes before resuspension in 15 mM Tris-HCl pH 7,5 buffer containing 2 mM MgCl2; 0,3 mM EDTA and 1 mM EGTA (buffer A). The cell suspention was homogenised and subsequently centrifuged at 40000×G in 30 minutes. The membrane-pellet was resuspended in buffer A containing 250 mM sucrose, alliquoted and stored at −80° C.
# Affinity assay description: The assay is performed as a filter-based competition-binding in a 50 mM Tris pH 7.4 assay buffer containing 120 mM NaCl and 3 mM MnCl2. App 0.05 nM ^3H-AE93103 was mixed with test compounds before addition of 0.15 μg of a homogenised NK3 membrane preparation in a total volume of 300 μl. The assay plate is incubated for 90 min at RT before content of the wells is transferred using a cell-harvester to GF/C filter plates, which has been pretreated with 0.1% PEI. The filter is washed 3 times with 1 ml an ice-cold 50 mM Tris buffer, pH 7,4. The filter is dried and added scintillation liquid before the plate is counted in a topcounter 5 minutes pr well.
# The total binding, which comprised less than 10% of added radioligand, was defined using assay buffer whereas the non-specific binding was defined in the presence of 1 μM SR142801. The non-specific binding constituted ˜10% of the total binding. Data points are expressed in percent of the specific binding of ^3H-AE93103 and the […] (concentration causing 50% inhibition of ^3H-AE93103 specific binding) are determined by non-linear regression analysis using a sigmoidal variable slope curve fitting.
# [1] = cited from earlier work
# [2] = cited from earlier work; remark: listed apart in the source
# [3] = in vivo; cited from earlier work
structure (smiles),measurement,setting,value
"CCNn1c(C)c(C(=O)N[C@H](c2cccc(F)c2)C2CCC2)c2cnccc2c1=O [Example 1a, 2-Ethylamino-3-methyl-1-oxo-1,2-dihydro-[2,6]naphthyridine-4-carboxylic acid [(S)-cyclobutyl-(3-fluoro-phenyl)-methyl]-amide]",Ki,human NK3 receptor,58 nM
"CCCNn1c(C)c(C(=O)N[C@H](c2ccc(F)cc2)C2CC2)c2cnccc2c1=O [Example 1b, 3-Methyl-1-oxo-2-propylamino-1,2-dihydro-[2,6]naphthyridine-4-carboxylic acid [(S)-cyclopropyl-(4-fluoro-phenyl)-methyl]-amide]",Ki,human NK3 receptor,720 nM
"CCCNn1c(C)c(C(=O)N[C@H](c2cccc(Cl)c2)C2CC2)c2cnccc2c1=O [Example 1c, 3-Methyl-1-oxo-2-propylamino-1,2-dihydro-[2,6]naphthyridine-4-carboxylic acid [(S)-(3-chloro-phenyl)-cyclopropyl-methyl]-amide]",Ki,human NK3 receptor,540 nM
"CCCNn1c(C)c(C(=O)NC(c2ccccc2F)C2CCC2)c2cnccc2c1=O (stereo not drawn) [Example 1d, 3-Methyl-1-oxo-2-propylamino-1,2-dihydro-[2,6]naphthyridine-4-carboxylic acid [cyclobutyl-(2-fluoro-phenyl)-methyl]-amide]",Ki,human NK3 receptor,160 nM
"CCCNn1c(C)c(C(=O)N[C@H](c2cccc(F)c2)C2CCC2)c2cnccc2c1=O [Example 1e, 3-Methyl-1-oxo-2-propylamino-1,2-dihydro-[2,6]naphthyridine-4-carboxylic acid [(S)-cyclobutyl-(3-fluoro-phenyl)-methyl]-amide]",Ki,human NK3 receptor,33 nM
"CCCNn1c(C)c(C(=O)N[C@@H](CC)c2ccccc2)c2cnccc2c1=O [Example 1g, 3-Methyl-1-oxo-2-propylamino-1,2-dihydro-[2,6]naphthyridine-4-carboxylic acid ((S)-1-phenyl-propyl)-amide]",Ki,human NK3 receptor,430 nM
"CCNn1c(C)c(C(=O)N[C@H](c2cccc(F)c2)C2CCC2)c2ncccc2c1=O [Example 2a, 6-Ethylamino-7-methyl-5-oxo-5,6-dihydro-[1,6]naphthyridine-8-carboxylic acid [(S)-cyclobutyl-(3-fluoro-phenyl)-methyl]-amide]",Ki,human NK3 receptor,91 nM
"CCNn1c(C)c(C(=O)N[C@H](c2cccc(F)c2)C2CCC2)c2ccncc2c1=O [Example 3a, 2-Ethylamino-3-methyl-1-oxo-1,2-dihydro-2,7-naphthyridine-4-carboxylic acid [(S)-cyclobutyl-(3-fluoro-phenyl)-methyl]-amide]",Ki,human NK3 receptor,110 nM
CC(=O)N(C)C1(c2ccccc2)CCN(CCC[C@]2(c3ccc(Cl)c(Cl)c3)CCCN(C(=O)c3ccccc3)C2)CC1 [Osanetant],solubility,[1],poor
same,"Effect in clinical trials, in particular on positive symptoms of psychosis","[2]; delusions, hallucinations and paranoia",superior to placebo
same,bioavailability,[3],poor
same,blood-brain barrier penetration,[3],poor
same,clearance,[3],relatively high
CC[C@H](NC(=O)c1c(O)c(-c2ccccc2)nc2ccccc12)c1ccccc1 [talnetant],solubility,[1],poor
same,Effect on cognitive behaviour of schizophrenics in clinical trials,[2]; schizophrenics,ameliorate the cognitive behaviour
same,bioavailability,[3],poor
same,blood-brain barrier penetration,[3],poor
same,clearance,[3],relatively high
